Drawing on ChEMBL document CHEMBL3507680, “University of Dundee, Gates Library screen for HepG2 cell viability”, this text covers cytotoxicity for 65 compounds.

The nature of the data set: Human HepG2 cell viability assay in 384 well format. It is filed as toxicity, cell-based. Details: dose 125 nL, time 70.5 hour; concentration not given beside the values. The settings on record: HepG2 cells, read-out: Inhibition.

For the compound `CCC(=O)N1CC[C@H]2C(=O)N(Cc3ccc(OC)cc3)CCO[C@H]2C1`, the cytotoxicity at 70.5 h was 34.1%.
`CC(C)n1nc(CNc2ncccn2)c2c1CN(S(C)(=O)=O)CC2`: the cytotoxicity at 70.5 h was found to be 10.7%.
For `Cc1cccc(CN2CC3C[C@]3(NC(=O)c3ccco3)C2)n1` (stereo not given in full) the value was -4.13%; for `COC[C@]12COC[C@H]1CN(C(=O)c1ccc(F)cc1C)C2`, 0.0363%.
Turning to `CCO[C@H]1CN(C(=O)c2ccc3c(c2)OCO3)[C@@H]2COC[C@H]12`, the cytotoxicity at 70.5 h is -2.21%.
Turning to `Cc1ccc(CN2C[C@H](N(C)Cc3cncnc3)[C@H]3OCCC[C@H]32)o1`, the cytotoxicity at 70.5 h is -10.1%.
In the case of `CN(C)CCO[C@H]1CN(C(=O)c2ccc3c(c2)OCO3)[C@@H]2COC[C@H]12`, the cytotoxicity at 70.5 h was -11.6%.
Turning to `Cc1cc(F)ccc1C(=O)N1C[C@@H]2COC[C@]2(COCC2CC2)C1`, the cytotoxicity at 70.5 h was -10.8%.
On to `CC(=O)N1Cc2nccn2CC(CNC(=O)c2cnccn2)C1` (stereo not given), for which the cytotoxicity at 70.5 h was -13.1%.
As to `CN1CC[C@H]2[C@H](C[C@@H](Cn3cncn3)N2c2nccs2)C1`, the cytotoxicity at 70.5 h was -8.05%.
As to `Cc1cccc(CN2CC3C[C@]3(NC(=O)c3ccoc3)C2)n1` (stereo not given in full), the cytotoxicity at 70.5 h was -12.4%.
As for `CN1CCN(c2ncnc3c2CCN(Cc2nccn2C)CC3)CC1`, the cytotoxicity at 70.5 h is 6.69%.
For `c1coc(CN2CC[C@@H]3O[C@@H](COCC4CCOCC4)CC[C@@H]32)c1` the value was -0.874%.
Take `Cc1ccc(C(=O)N2CCC3(CCN(Cc4ccccn4)C3=O)C2)cn1` (stereo not given): the cytotoxicity at 70.5 h was -5.23%.
To `O=C(COC[C@@H]1CC[C@H]2[C@H](CCN2Cc2ccco2)O1)N1CCCC1` belongs 24.3%; to `CCN(CC)CC1CN(Cc2ccco2)Cc2nccn2C1` (stereo not given), -4.92%.
As for `Cn1ccc(C(=O)NC2CCC23CCN(Cc2nccs2)CC3)c1` (stereo not given), the cytotoxicity at 70.5 h is -4.21%.
As for `COCCn1c2c(ccc1=O)CCN(Cc1ccoc1)CC2`, the cytotoxicity at 70.5 h is -3.82%.
Take `Cc1cccc(CN2CCc3ncnc(Oc4cccnc4)c3CC2)n1`: the cytotoxicity at 70.5 h stood at 27.9%.
Take `COc1nn(C)c2c1CCCN(C(=O)c1ccccc1F)C2`: the cytotoxicity at 70.5 h was -95.9%.
Take `COCCO[C@H]1CCN(C(=O)c2ccco2)[C@H]1Cc1cnn(C)c1`: the cytotoxicity at 70.5 h is -90.2%.
As to `CCN(CC)C(=O)C1CCC2(CCNCC2)O1` (stereo not given), the cytotoxicity at 70.5 h is -12.5%.
With `CCN(CC)C(=O)C1CCC2(CCNCC2)CO1` (stereo not given), the cytotoxicity at 70.5 h is -14.2%.
`CC(=O)N1Cc2nccn2CC(CNC(=O)c2cccnc2)C1` (stereo not given): the cytotoxicity at 70.5 h is -11.5%.
Consider `CC(=O)NCc1nnc2n1CCN(Cc1cccs1)C2`, for which the cytotoxicity at 70.5 h was -11.7%.
For `CCS(=O)(=O)N1CCCC2(CCCN2Cc2cccc(Cl)c2)C1` (stereo not given), the cytotoxicity at 70.5 h is -4.53%.
Consider `CNC(=O)CN1CCO[C@H]2CN(C(=O)c3ccncc3F)C[C@H]21`, for which the cytotoxicity at 70.5 h is -3.77%.
Consider `O=S(=O)(C1CC1)N1CCO[C@@H]2CN(Cc3cccs3)C[C@@H]2C1`, for which the cytotoxicity at 70.5 h was -5.47%.
With `CC(C)N1CCO[C@H]2CN(C(=O)c3ccncc3F)C[C@H]21`, the cytotoxicity at 70.5 h is -4.09%.
`O=S(=O)(c1ccccc1)N1CCC2(CCCN2Cc2cccc(Cl)c2)C1` (stereo not given): the cytotoxicity at 70.5 h was -11.2%.
`CCCS(=O)(=O)N1C[C@@H]2CN(Cc3cccs3)CCO[C@@H]2C1`: the cytotoxicity at 70.5 h was -14.7%.
Turning to `O=S(=O)(C1CC1)N1C[C@@H]2CN(Cc3ccoc3)CCO[C@@H]2C1`, the cytotoxicity at 70.5 h is -15.4%.
Take `Cc1cc(C(=O)N2C[C@@H]3COC[C@]3(CN(C)C)C2)c(C)o1`: the cytotoxicity at 70.5 h is -17.3%.
`Cc1cc(F)ccc1C(=O)N1C[C@@H]2COC[C@]2(CN(C)C)C1`: the cytotoxicity at 70.5 h is -14.9%.
Turning to `CCOCC1c2c(cnn2CC2CC2)CCN1C(=O)c1ccncn1` (stereo not given), the cytotoxicity at 70.5 h stood at 20.9%.
Take `Cn1ncc2c1C(COCC1CC1)N(C(=O)c1ccncn1)CC2` (stereo not given): the cytotoxicity at 70.5 h is 5.78%.
For the compound `O=C1C[C@@H]2[C@H](CCN2Cc2ccco2)N1c1ccsc1`, the cytotoxicity at 70.5 h amounted to 9.07%.
As for `O=S(=O)(c1ccccc1)N1C[C@@H]2COC[C@]2(CN2CCOCC2)C1`, the cytotoxicity at 70.5 h amounted to 13.1%.
`CN(C)S(=O)(=O)N1C[C@H]2CCC[C@@]2(COCc2ccccn2)C1`: the cytotoxicity at 70.5 h amounted to 13.2%.
For `Cc1ccc(CN2CC[C@H]3[C@H]2CC(=O)N3c2ccsc2)o1` the value was 5.86%; for `c1coc(CN2CC[C@H]3O[C@@H](COCC4CC4)CC[C@H]32)c1`, 7.95%; for `CCO[C@H]1CO[C@@]2(CCCN(Cc3scnc3C)C2)C1`, 14.7%.
As to `Cn1c2c(ccc1=O)CCN(Cc1ccoc1)CC2`, the cytotoxicity at 70.5 h was 4.43%.
For the compound `CN(C)C(=O)COC[C@H]1CC[C@@H]2[C@@H](CCN2Cc2ccco2)O1`, the cytotoxicity at 70.5 h was 7.59%.
Take `Fc1ccc(CN2CCc3ncnc(C4CC4)c3CC2)cc1`: the cytotoxicity at 70.5 h was found to be 1.98%.
Turning to `c1ccc(CN2Cc3nccn3CC(Cn3cncn3)C2)nc1` (stereo not given), the cytotoxicity at 70.5 h was determined as 2.19%.
For the compound `O=C(c1ccsc1)N1CCC2(CCN(Cc3ccccn3)C2=O)C1` (stereo not given), the cytotoxicity at 70.5 h stood at 2.48%.
Regarding `Cc1cc(CN2CCC3(CC2)CC(Nc2ncccn2)CO3)nn1C` (stereo not given), the cytotoxicity at 70.5 h is -35.4%.
For `CC(C)CS(=O)(=O)N1CCC2(CN(c3ccsc3)C(=O)CN2C)C1` (stereo not given) the value was -111%; for `CO[C@@H]1CC[C@H]2[C@H]1OCCN2CC1CC1`, -83.7%.
On to `Cc1nc(-c2cc(C(=O)NCCN3CCOCC3)c3ccccn23)cs1`, for which the cytotoxicity at 70.5 h was -131%.
For the compound `Cc1nc(CN2CCOCC3(CCN(c4cnccn4)CC3)C2)cs1`, the cytotoxicity at 70.5 h was -82.2%.
For `c1ccc(CN2CCCn3nnc(CNc4ncccn4)c3C2)nc1` the value was -87.8%.
As to `COCCO[C@H]1CCN(C(=O)c2cccnc2)[C@H]1Cc1cnn(C)c1`, the cytotoxicity at 70.5 h was -96.2%.
For `c1csc(CN2CCO[C@@H]3CN(C4CCOCC4)C[C@@H]3C2)c1`, the cytotoxicity at 70.5 h is -10%.
Consider `Cn1cnc(S(=O)(=O)N2CCN(CC3CC3)c3ncccc3C2)c1`, for which the cytotoxicity at 70.5 h is -6.52%.
Turning to `CC(C)CN1CCN(S(=O)(=O)c2cn(C)cn2)Cc2cccnc21`, the cytotoxicity at 70.5 h is -10.6%.
For the compound `Cc1csc(CN2CCC[C@]3(C[C@@H](Oc4ccccn4)CO3)C2)n1`, the cytotoxicity at 70.5 h turned out to be 1.82%.
On to `O=C(NC[C@H]1OC[C@@H]2CN(Cc3ccco3)CC[C@@H]21)c1cccnc1`, for which the cytotoxicity at 70.5 h stood at 6.02%.
For `Cc1cccc(CN2CCc3ncnc(N4CCN(C)CC4)c3CC2)n1` the value was -0.603%; for `c1cc(CN2Cc3nccn3CC(Cn3cncn3)C2)ccn1` (stereo not given), 3.67%.
To `O=C1CO[C@@H]2CN(CC3CCOCC3)C[C@H]2N1Cc1ccncc1` belongs -2.17%; to `O=C(Nc1cccnc1)[C@@H]1COC[C@H]2CN(C3CCCC3)C[C@H]21`, -124%.
Take `CC(C)N1[C@H](CN2CCCC2)C[C@@H]2CN(Cc3ccoc3)CC[C@@H]21`: the cytotoxicity at 70.5 h is -10%.
`c1cncc(CN2CC[C@@H]3O[C@H](COCCN4CCCC4)CC[C@@H]32)c1`: the cytotoxicity at 70.5 h turned out to be 5.3%.
